Data on 30 compounds can be found in US10092551B2, “Spiro-thiazolones” (Hoffmann-La Roche Inc., priority 2014, dated 2018).

Counter-ions that a name gives are not always drawn.

Chain of human V1a receptor (P37288 whole entry): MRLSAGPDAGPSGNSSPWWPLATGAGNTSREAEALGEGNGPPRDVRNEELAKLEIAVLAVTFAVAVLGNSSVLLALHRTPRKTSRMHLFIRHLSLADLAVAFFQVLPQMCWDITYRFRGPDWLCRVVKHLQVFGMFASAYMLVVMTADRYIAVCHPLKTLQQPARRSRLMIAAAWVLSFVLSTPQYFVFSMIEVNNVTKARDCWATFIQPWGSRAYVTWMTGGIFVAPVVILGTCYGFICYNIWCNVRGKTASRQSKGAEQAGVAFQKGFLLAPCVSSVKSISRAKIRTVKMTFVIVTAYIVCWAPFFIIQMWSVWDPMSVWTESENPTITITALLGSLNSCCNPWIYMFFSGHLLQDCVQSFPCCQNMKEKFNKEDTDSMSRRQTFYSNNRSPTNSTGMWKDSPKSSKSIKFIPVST

In one assay the target is human V1a receptor (Homo sapiens (Human), UniProt P37288). The assay is described as follows: human V1a receptor binding studies (3H-Vasopressin, SPA beads). The conditions noted are these: membranes of HEK293 cells transiently transfected with human V1a receptor, Ki by Cheng-Prussoff. The method in brief:
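Membranes from HEK293 cells transiently expressing cloned human V1a receptor, bound on yttrium silicate SPA beads with 4 nM 3H-vasopressin (added stock) and serially diluted compound, 1 h at room temperature. Non-specific binding defined with cold vasopressin; IC50 by non-linear regression, Ki via Cheng-Prusoff.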
As for `CC(C)(C)/C(=C1/SC(N2CCC3(CC2)OCc2ccccc23)=NC1=O)c1ccc(Cl)cc1` [Example 21, (5E/Z)-5-[1-(4-chlorophenyl)-2,2-dimethylpropylidene]-2-(1′H,3H-spiro[2-benzofuran-1,4′-piperidin]-1′-yl)-1,3-thiazol-4(5H)-one], the “pKi hV1a” value worked out at 7.9.

Turning to `O=C1N=C(N2CCC3(CC2)OCc2ccccc23)S/C1=C1/COCc2ccccc21` [Example 87, (5E/Z)-5-(1H-isochromen-4(3H)-ylidene)-2-(1′H,3H-spiro[2-benzofuran-1,4′-piperidin]-1′-yl)-1,3-thiazol-4(5H)-one], the “pKi hV1a” value was 8.9.

For the compound `O=C1N=C(N2CCC3(CC2)OCc2ccccc23)S/C1=C1/CCCCc2ccccc21` [Example 47, (5Z)-2-(1′H,3H-spiro[2-benzofuran-1,4′-piperidin]-1′-yl)-5-(6,7,8,9-tetrahydro-5H-benzo[7]annulen-5-ylidene)-1,3-thiazol-4(5H)-one], the “pKi hV1a” value was determined as 9.3.

As for `O=C1N=C(N2CCC3(CC2)OCc2ccccc23)SC1=C(C1CC1)C1CC1` [Example 115, 5-(dicyclopropylmethylidene)-2-(1′H,3H-spiro[2-benzofuran-1,4′-piperidin]-1′-yl)-1,3-thiazol-4(5H)-one], the “pKi hV1a” value came to 8.9.

`C/C(=C1/SC(N2CCC3(CC2)OCc2ccccc23)=NC1=O)C1CC1` [Example 42, (5E/Z)-5-(1-cyclopropylethylidene)-2-(1′H,3H-spiro[2-benzofuran-1,4′-piperidin]-1′-yl)-1,3-thiazol-4(5H)-one]: the “pKi hV1a” value is 8.4.

Turning to `O=C1N=C(N2CCC3(CC2)OCc2ccccc23)S/C1=C\c1cccnc1` [Example 94, 5-(pyridin-3-ylmethylidene)-2-(1′H,3H-spiro[2-benzofuran-1,4′-piperidin]-1′-yl)-1,3-thiazol-4(5H)-one], the “pKi hV1a” value worked out at 7.1.

With `O=C1N=C(N2CCC3(CC2)OCc2ccccc23)SC1=C1CCCCC1` [Example 52, 5-cyclohexylidene-2-(1′H,3H-spiro[2-benzofuran-1,4′-piperidin]-1′-yl)-1,3-thiazol-4(5H)-one], the “pKi hV1a” value is on record as 8.5.

As for `C/C(=C1/SC(N2CCC3(CC2)OCc2ccccc23)=NC1=O)c1cc2ncccc2o1` [Example 108, (5E/Z)-5-[1-(furo[3,2-b]pyridin-2-yl)ethylidene]-2-(1′H,3H-spiro[2-benzofuran-1,4′-piperidin]-1′-yl)-1,3-thiazol-4(5H)-one], the “pKi hV1a” value was determined as 7.0.

Regarding `CC(C)(C)[Si](C)(C)OC/C(=C1/SC(N2CCC3(CC2)OC(=O)c2ccccc23)=NC1=O)c1ccc(Cl)nc1` [Example 144, 1′-{(5E)-5-[2-{[tert-butyl(dimethyl)silyl]oxy}-1-(6-chloropyridin-3-yl)ethylidene]-4-oxo-4,5-dihydro-1,3-thiazol-2-yl}-3H-spiro[2-benzofuran-1,4′-piperidin]-3-one], the “pKi hV1a” value is recorded as 8.0.

As to `C=C/C(C)=C1\SC(N2CCC3(CC2)OCc2ccccc23)=NC1=O` [Example 70, (5E/Z)-5-(but-3-en-2-ylidene)-2-(1′H,3H-spiro[2-benzofuran-1,4′-piperidin]-1′-yl)-1,3-thiazol-4(5H)-one], the “pKi hV1a” value is recorded as 7.6.

With `O=C1N=C(N2CCC3(CC2)OCc2ccccc23)SC1=C1Cc2ccccc2C1` [Example 161, 5-(1,3-dihydro-2H-inden-2-ylidene)-2-(1′H,3H-spiro[2-benzofuran-1,4′-piperidin]-1′-yl)-1,3-thiazol-4(5H)-one], the “pKi hV1a” value is recorded as 7.8.

With `[2H]C([2H])([2H])/C(=C1/SC(N2CCC3(CC2)OCc2ccccc23)=NC1=O)c1ccccc1` [Example 173, (5Z)-5-[1-phenyl(^2H3)ethylidene]-2-(1′H,3H-spiro[2-benzofuran-1,4′-piperidin]-1′-yl)-1,3-thiazol-4(5H)-one], the “pKi hV1a” value was 8.8.

For `CC(=O)OCC(COC(C)=O)=C1SC(N2CCC3(CC2)OCc2ccccc23)=NC1=O` [Example 72, 2-[4-oxo-2-(1′H,3H-spiro[2-benzofuran-1,4′-piperidin]-1′-yl)-1,3-thiazol-5(4H)-ylidene]propane-1,3-diyl diacetate], the “pKi hV1a” value came to 8.3.

As for `CC(C)(C)OC(=O)N1CCC/C(=C2/SC(N3CCC4(CC3)OCc3ccccc34)=NC2=O)CC1` [Example 80, tert-butyl (4E/Z)-4-[4-oxo-2-(1′H,3H-spiro[2-benzofuran-1,4′-piperidin]-1′-yl)-1,3-thiazol-5(4H)-ylidene]azepane-1-carboxylate], the “pKi hV1a” value was found to be 7.1.

For the compound `C/C(=C1/SC(N2CCC3(CC2)OCc2ccccc23)=NC1=O)C1CCOCC1` [Example 78, (5E/Z)-2-(1′H,3H-spiro[2-benzofuran-1,4′-piperidin]-1′-yl)-5-[1-(tetrahydro-2H-pyran-4-yl)ethylidene]-1,3-thiazol-4(5H)-one], the “pKi hV1a” value was 7.9.

Take `C/C(=C1/SC(N2CCC3(CC2)OCc2ccccc23)=NC1=O)c1ccccc1F` [Example 40, (5E/Z)-5-[1-(2-fluorophenyl)ethylidene]-2-(1′H,3H-spiro[2-benzofuran-1,4′-piperidin]-1′-yl)-1,3-thiazol-4(5H)-one]: the “pKi hV1a” value worked out at 8.9.

Consider `C/C(=C1/SC(N2CCC3(CC2)OCc2ccccc23)=NC1=O)c1ncc[nH]1` [Example 107, (5Z)-5-[1-(1H-imidazol-2-yl)ethylidene]-2-(1′H,3H-spiro[2-benzofuran-1,4′-piperidin]-1′-yl)-1,3-thiazol-4(5H)-one], for which the “pKi hV1a” value amounted to 6.8.

As to `CS(=O)(=O)N1CCC(=C2SC(N3CCC4(CC3)OCc3ccccc34)=NC2=O)CC1` [Example 68, 5-[1-(methylsulfonyl)piperidin-4-ylidene]-2-(1′H,3H-spiro[2-benzofuran-1,4′-piperidin]-1′-yl)-1,3-thiazol-4(5H)-one], the “pKi hV1a” value amounted to 7.7.

Consider `CC(C)(C)OC(=O)N1CCC/C(=C2/SC(N3CCC4(CC3)OCc3ccccc34)=NC2=O)C1` [Example 88, tert-butyl (3E/Z)-3-[4-oxo-2-(1′H,3H-spiro[2-benzofuran-1,4′-piperidin]-1′-yl)-1,3-thiazol-5(4H)-ylidene]piperidine-1-carboxylate], for which the “pKi hV1a” value turned out to be 6.7.

Take `C/C(=C1/SC(N2CCC3(CC2)OCc2ccccc23)=NC1=O)C(F)(F)F` [Example 71, (5Z)-2-(1′H,3H-spiro[2-benzofuran-1,4′-piperidin]-1′-yl)-5-(1,1,1-trifluoropropan-2-ylidene)-1,3-thiazol-4(5H)-one]: the “pKi hV1a” value came out at 8.3.

On to `O=C1N=C(N2CCC3(CC2)OCc2ncccc23)S/C1=C1/COCc2ccccc21` [Example 168, (5E/Z)-5-(1H-isochromen-4(3H)-ylidene)-2-(1′H,7H-spiro[furo[3,4-b]pyridine-5,4′-piperidin]-1′-yl)-1,3-thiazol-4(5H)-one], for which the “pKi hV1a” value was found to be 8.2.

Take `C/C(=C1/SC(N2CCC3(CC2)OC(=O)c2ccccc23)=NC1=O)c1ccc(C)nc1` [Example 135, 1′-{(5Z)-5-[1-(6-methylpyridin-3-yl)ethylidene]-4-oxo-4,5-dihydro-1,3-thiazol-2-yl}-3H-spiro[2-benzofuran-1,4′-piperidin]-3-one]: the “pKi hV1a” value amounted to 7.9.

On to `CC(C)(C)[Si](C)(C)OC/C(=C1\SC(N2CCC3(CC2)OC(=O)c2ccccc23)=NC1=O)c1ccc(Cl)nc1` [Example 146, 1′-{(5Z)-5-[2-{[tert-butyl(dimethyl)silyl]oxy}-1-(6-chloropyridin-3-yl)ethylidene]-4-oxo-4,5-dihydro-1,3-thiazol-2-yl}-3H-spiro[2-benzofuran-1,4′-piperidin]-3-one], for which the “pKi hV1a” value stood at 7.3.

For `Cc1cc(/C=C2\SC(N3CCC4(CC3)OCc3ccccc34)=NC2=O)no1` [Example 91, 5-[(5-methyl-1,2-oxazol-3-yl)methylidene]-2-(1′H,3H-spiro[2-benzofuran-1,4′-piperidin]-1′-yl)-1,3-thiazol-4(5H)-one], the “pKi hV1a” value turned out to be 7.5.

For the compound `O=C1N=C(N2CCC3(CC2)OCc2ccccc23)S/C1=C1/CCCc2ccc(Cl)cc21` [Example 20, (5E/Z)-5-(7-chloro-3,4-dihydronaphthalen-1 (2H)-ylidene)-2-(1′H,3H-spiro[2-benzofuran-1,4′-piperidin]-1′-yl)-1,3-thiazol-4(5H)-one], the “pKi hV1a” value came out at 9.0.

On to `Cc1cc(/C=C2\SC(N3CCC4(CC3)OCc3ccccc34)=NC2=O)no1` [Example 93, 5-[(5-methyl-1,2-oxazol-3-yl)methylidene]-2-(1′H,3H-spiro[2-benzofuran-1,4′-piperidin]-1′-yl)-1,3-thiazol-4(5H)-one], for which the “pKi hV1a” value was found to be 8.1.

On to `C/C(=C1/SC(N2CCC3(CC2)OCc2ccccc23)=NC1=O)c1cnn(C)c1` [Example 62, (5Z)-5-[1-(1-methyl-1H-pyrazol-4-yl)ethylidene]-2-(1′H,3H-spiro[2-benzofuran-1,4′-piperidin]-1′-yl)-1,3-thiazol-4(5H)-one], for which the “pKi hV1a” value was 8.3.

As for `C/C(=C1/SC(N2CCC3(CC2)OCc2ccccc23)=NC1=O)c1oc(C)nc1C` [Example 86, (5E/Z)-5-[1-(2,4-dimethyl-1,3-oxazol-5-yl)ethylidene]-2-(1′H,3H-spiro[2-benzofuran-1,4′-piperidin]-1′-yl)-1,3-thiazol-4(5H)-one], the “pKi hV1a” value is 8.9.

Regarding `C/C(=C1\SC(N2CCC3(CC2)OC(=O)c2ccccc23)=NC1=O)c1ccccc1` [Example 157, 1′-[(5E)-4-oxo-5-(1-phenylethylidene)-4,5-dihydro-1,3-thiazol-2-yl]-3H-spiro[2-benzofuran-1,4′-piperidin]-3-one], the “pKi hV1a” value came to 7.8.

The assay is the same for the next values; noted with them: membranes of HEK293 cells transiently transfected with human V1a receptor, Ki by Cheng-Prussoff, read-out: pKi hV1a (converted).
In the case of `O=C1N=C(N2CCC3(CC2)OCc2ccccc23)SC1=C1CCCNCC1` (racemic) [Example 81, (5E/Z)-5-(azepan-4-ylidene)-2-(1′H,3H-spiro[2-benzofuran-1,4′-piperidin]-1′-yl)-1,3-thiazol-4(5H)-one hydrochloride], the Ki is 126 nM.
